Consider two molecules from publication PMC5366289 (Biochemistry, 2016).

Entries after “also recorded” stand apart in the source; their conditions may differ.

Series [1] can be described thus: Far-UV circular dichroism, helical content of T-domain peptides. Format: physicochemical. Background: Circular dichroism is widely used to follow secondary structure.
In the next series the target is TolC (Escherichia coli, UniProt P02930). Particulars: BLM; concentration not given; listed as synthetic peptide 100–120.
Sequence of TolC (P02930 23-493): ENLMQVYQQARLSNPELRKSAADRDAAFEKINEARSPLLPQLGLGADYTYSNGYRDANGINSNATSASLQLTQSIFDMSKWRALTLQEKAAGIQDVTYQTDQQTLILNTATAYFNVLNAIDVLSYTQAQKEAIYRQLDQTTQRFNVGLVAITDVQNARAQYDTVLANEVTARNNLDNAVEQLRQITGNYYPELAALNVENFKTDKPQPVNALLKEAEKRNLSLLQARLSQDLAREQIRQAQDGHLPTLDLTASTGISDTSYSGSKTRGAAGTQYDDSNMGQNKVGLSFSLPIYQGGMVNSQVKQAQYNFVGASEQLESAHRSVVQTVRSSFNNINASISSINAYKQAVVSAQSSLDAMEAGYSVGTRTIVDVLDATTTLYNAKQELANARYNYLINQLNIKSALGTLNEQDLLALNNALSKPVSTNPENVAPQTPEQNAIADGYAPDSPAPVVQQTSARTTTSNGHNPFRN
For another series, the system named is E. coli cells. Conditions: ref K. S. Jakes, unpublished data; listed as T100–120; cited from earlier work.
Series [2] concerns E. coli, TolC Gly43 mutants. Particulars: cited from earlier work.
For series [3] the following is noted: cytoplasmic membrane; cited from earlier work.

With H-EALRHNASRTPSATELAHANN-OH [100–120 ^e], the “no. of residues, helix” value in series [1] (from helical content by far-UV CD, DichroWeb, tags assumed unordered) was determined as 0 residues. Besides, the “no. of residues, unordered” value in series [1] (total number in peptide excluding tags minus residues in helices) amounted to 21 residues. For the same molecule, the “occlusion of TolC channels, in words” value on TolC was “did not occlude TolC channels”. Besides, the “protection of E. coli cells against colicin E1 cytotoxicity” value in the series on E. coli cells is “inability of the synthetic peptide T100–120, which lacks ordered secondary structure, to occlude TolC channels, and to protect E. coli cells; also recorded: does not protect E. coli cells”.

B1: colicin E1: 522-residue channel-forming colicin (protein, UniProt P02978 1-522, looked up)
Colicin-E1: METAVAYYKDGVPYDDKGQVIITLLNGTPDGSGSGGGGGKGGSKSESSAAIHATAKWSTAQLKKTQAEQAARAKAAAEAQAKAKANRDALTQRLKDIVNEALRHNASRTPSATELAHANNAAMQAEDERLRLAKAEEKARKEAEAAEKAFQEAEQRRKEIEREKAETERQLKLAEAEEKRLAALSEEAKAVEIAQKKLSAAQSEVVKMDGEIKTLNSRLSSSIHARDAEMKTLAGKRNELAQASAKYKELDELVKKLSPRANDPLQNRPFFEATRRRVGAGKIREEKQKQVTASETRINRINADITQIQKAISQVSNNRNAGIARVHEAEENLKKAQNNLLNSQIKDAVDATVSFYQTLTEKYGEKYSKMAQELADKSKGKKIGNVNEALAAFEKYKDVLNKKFSKADRDAIFNALASVKYDDWAKHLDQFAKYLKITGHVSFGYDVVSDILKIKDTGDWKPLFLTLEKKAADAGVSYVVALLFSLLAGTTLGIWGIAIVTGILCSYIDKNKLNTINEVLGI
With B1, the “killing efficiency of colicin E1 on TolC Gly43 mutants” value in series [2] (larger side chains at TolC residue 43) is reported as “reduced the killing efficiency”. In series [2] (mutation to residue with larger side chains), the “decrease in colicin E1 cytotoxicity by TolC G43 mutation” value is ≤ 1000 -fold. For the same molecule, the channel conductance entry in series [3] was “approximately 10^6 ions/s per channel”.
